Test results: PubChem BioAssay (NCI)
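Results reflect a 48-hour exposure of cells in 96-well plates to compound at five concentrations. The concentration for 50% growth inhibition is given as GI50. The concentration for full growth arrest is given as TGI.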

Columns and labels:
Assay in all cases: NCI anticancer screen, dose series, 48 h
HL-60(TB) leukemia = tested on: HL-60(TB) leukemia
UO-31 renal = tested on: UO-31 renal
SNB-19 CNS = tested on: SNB-19 CNS
OVCAR-3 ovarian = tested on: OVCAR-3 ovarian
COLO 205 colon = tested on: COLO 205 colon
A549 NSCLC = tested on: A549 NSCLC
TK-10 renal = tested on: TK-10 renal
KM12 colon = tested on: KM12 colon
PC-3 prostate = tested on: PC-3 prostate
MDA-MB-435 = tested on: MDA-MB-435

Compound	GI50 (HL-60(TB) leukemia)	TGI (HL-60(TB) leukemia)	GI50 (UO-31 renal)	TGI (UO-31 renal)	GI50 (SNB-19 CNS)	TGI (SNB-19 CNS)	GI50 (OVCAR-3 ovarian)	TGI (OVCAR-3 ovarian)	GI50 (COLO 205 colon)	TGI (COLO 205 colon)	GI50 (A549 NSCLC)	TGI (A549 NSCLC)	GI50 (TK-10 renal)	TGI (TK-10 renal)	GI50 (KM12 colon)	TGI (KM12 colon)	GI50 (PC-3 prostate)	TGI (PC-3 prostate)	GI50 (MDA-MB-435)	TGI (MDA-MB-435)
C[CH2][Sn]([CH2]C)([O]C(=O)c1ccccc1F)[O][Sn]([CH2]C)([CH2]C)[O]C(=O)c1ccccc1F	43.3 µM	> 75.7 µM	> 72.4 µM	> 100 µM	> 43.6 µM	> 57.6 µM	> 42 µM	> 56.3 µM	25.6 µM	> 57.9 µM	> 100 µM	> 100 µM	18 µM	32.1 µM	> 67.6 µM	> 100 µM	–	–	–	–
COc1ccc(CC2(Cc3ccc(OC)cc3)CCOC2=O)cc1	–	> 100 µM	–	> 100 µM	–	> 100 µM	–	> 100 µM	–	> 100 µM	–	> 100 µM	–	> 100 µM	–	> 100 µM	–	–	–	–
CCc1cccc(C)c1NC(=O)C1=C(C)NC(C)=C(C(=O)Nc2c(C)cccc2CC)C1c1ccc2c(c1)OCO2	–	57.1 µM	–	28.7 µM	–	96.4 µM	–	39.8 µM	–	38.6 µM	–	43.6 µM	–	80.1 µM	–	30.9 µM	–	–	–	–
Nc1ncnc2c1c(-c1ccc(Oc3ccccc3)cc1)nn2C[C@@H]1SSC[C@H]1O	1.84 µM	6.79 µM	1.07 µM	3.55 µM	2.88 µM	13.3 µM	0.819 µM	9.76 µM	2.14 µM	7.48 µM	1.86 µM	4.69 µM	1.49 µM	3.16 µM	0.208 µM	16.7 µM	3.23 µM	15.5 µM	–	–
COc1ccc(N(/C=C/C(=O)C(F)(F)F)CC(=O)c2ccc(F)cc2)cc1	–	–	36.3 µM	> 100 µM	36.6 µM	> 100 µM	21.2 µM	48.6 µM	26.9 µM	84.5 µM	32 µM	> 100 µM	42.1 µM	96.4 µM	21.6 µM	56 µM	23.1 µM	85.7 µM	19.9 µM	52.2 µM
COc1cc2c(cc1OC)[C@@H](Nc1ccc(F)cc1)C1COC(=O)[C@@H]1C2c1cc(OC)c(O)c(OC)c1 (some centres undefined)	–	0.626 µM	–	15.4 µM	–	> 100 µM	–	> 100 µM	–	33.3 µM	–	15 µM	–	63 µM	–	> 64.5 µM	–	–	–	–
O=C(NC(=Nc1ccccc1)SCCSC(=Nc1ccccc1)NC(=O)c1cccs1)c1cccs1	–	–	–	92.8 µM	–	> 100 µM	–	> 100 µM	–	> 100 µM	–	> 100 µM	–	> 100 µM	–	> 100 µM	–	–	–	–
C[C@]12CCC(=O)CC1CCCC2=O (some centres undefined)	–	> 100 µM	–	> 100 µM	–	> 100 µM	–	> 100 µM	–	> 100 µM	–	> 100 µM	–	> 100 µM	–	> 100 µM	–	–	–	–
CCN(CC)c1oc(N(CC)CC)c(C(=O)Nc2ccccn2)c(=O)c1C(C)=O	–	–	–	> 100 µM	–	> 100 µM	–	> 100 µM	–	> 100 µM	–	> 100 µM	–	> 100 µM	–	> 100 µM	–	–	–	–
[O-]c1ccccc1/C=N/C(/N=C/c1ccccc1[O-])c1ccccc1O.[O-]c1ccccc1/C=N/C(/N=C/c1ccccc1[O-])c1ccccc1O.[Zr+4]	30.6 µM	> 100 µM	14.4 µM	98.7 µM	13.1 µM	> 100 µM	–	–	–	–	40 µM	> 100 µM	43.6 µM	> 100 µM	38.6 µM	> 100 µM	50.9 µM	> 100 µM	28.2 µM	> 100 µM
